Like-named read-outs stand apart in the source and are kept apart here.

What is called IC50 is the concentration needed to halve the response being measured.

Experiment [1] concerns human myeloma cell lines (HMCLs). The experiment is described as follows: Growth assay for myeloma cells (Cell Titer Glo, 4 days, graded DNMTi concentrations). Format: cell-based. The following applies: for IC50: Homo sapiens, 5-azacitidine. How it is done: HMCLs were cultured for 4 days in 96-well flat-bottom microtiter plates in RPMI 1640 medium, 10% FCS, 2 ng/ml IL-6 culture medium (control), with graded decitabine concentrations. Data are mean values plus or minus standard deviation (SD) of 5 experiments determined on sextuplet culture wells.
HMCLs were cultured for 4 days in 96-well flat-bottom microtiter plates in RPMI 1640 medium, 10% FCS, 2 ng/ml IL-6 culture medium (control), and graded 5-azacitidine concentrations. Data are mean values plus or minus standard deviation (SD) of 5 experiments determined on sextuplet culture wells.
HMCLs were cultured for 4 days in 96-well flat-bottom microtiter plates in RPMI 1640 medium, 10% FCS, 2 ng/ml IL-6 culture medium (control), with graded decitabine concentrations. Cell growth was evaluated by quantifying intracellular ATP amount with a Cell Titer Glo Luminescent Assay (Promega, Madison, Wis.) with a Centro LB 960 luminometer (Berthold Technologies, Bad Wildbad, Germany).
The inventors sought to determine whether DM Score could predict for the sensitivity of 10 HMCLs to DNMT inhibitor. Starting from a large cohort of 40 HMCLs (22), the 10 HMCLs with the highest or lowest DM Score were selected to assay decitabine sensitivity.
HMCLs were cultured with graded 5-azacitidine (Sigma, St. Louis, Mo.) concentrations. HMCLs cell growth was quantified with a Cell Titer Glo Luminescent Assay (Promega, Madison, Wis.) and half inhibitory concentration (IC50) was determined using GraphPad Prism (http://www.graphpad.com/scientific-software/prism/).
In general terms: Cellular ATP, detected with luciferase, serves as a proxy for viable cell number.

For experiment [2], the system named is primary myeloma cells of patients (CD138+ viable plasma cells). The experiment is described as follows: Mononuclear cell culture of patients' tumor samples, count of viable CD138+ myeloma cells by flow cytometry. Format: cell-based, human. The following applies: primary MMCs of high DM Score patients (N=7) versus low DM Score patients (N=7), P<0.05. As for the experimental part:
Mononuclear cells from tumor samples of 12 patients with MM were cultured for 4 days in the presence of IL-6 (2 ng/ml) with or without graded decitabine concentrations. At day 4 of culture, the cell count and the viability were determined and the percentage of CD138^+ viable plasma cells was determined by flow cytometry. Black color represents patients with high DM Score (N=6) and white represents patients with low DM Score values (N=6).
Mononuclear cells from tumor samples of 14 patients with MM were cultured for 4 days in the presence of IL-6 (2 ng/ml) with or without graded 5-azacitidine concentrations. At day 4 of culture, the count of viable CD138′ MMCs was determined using flow cytometry. The black columns represent the mean±SD of primary myeloma cell counts (expressed as the percentage of the count without adding 5-azcytidine) of the 7 patients with a low DM Score and the white columns that of the 7 patients with a high DM Score.
Mononuclear cells from tumor samples of 12 patients with MM (agreement of the Center for Biological Resources of Montpellier University Hospital (N° DC-2008-417)) were cultured for 4 days at 2×10^5 cells/ml in RPMI 1640 medium, 10% FCS, 2 ng/ml IL-6, with or without graded concentrations of decitabine. In each culture group, viability and cell counts were assayed and MMCs were stained with an anti-CD138-PE mAb (Immunotech, Marseille, France) as previously described (32).
Primary myeloma cells of 14 patients were cultured with or without graded concentrations of 5-azacitidine and MMC cytotoxicity evaluated using anti-CD138-PE mAb (Immunotech, Marseille, France) as described (Jourdan, et al 1998; Mahtouk, et al 2004; Moreaux, et al 2012).
In general terms: Flow cytometry measures light scatter and fluorescence of single cells or particles in a stream.

On to `Nc1ncn([C@@H]2O[C@H](CO)[C@@H](O)[C@H]2O)c(=O)n1` [5-azacitidine, 5-Azacytidine], for which the “fold higher 5-azacitidine sensitivity” value in experiment [1] (HMCLs with high DM Score versus low DM Score, P=0.01) is given as 3 fold. Further, the IC50 in experiment [1] (6 HMCLs with high DM Score, read-out: IC50 range) is 1.12 to 8.25 µM; in experiment [1] (6 HMCLs with high DM Score, read-out: median IC50) it was 2.43 µM; in experiment [1] (6 HMCLs with low DM Score, read-out: IC50 range), 5.73 to 27.9 µM; in experiment [1] (6 HMCLs with low DM Score, read-out: median IC50) it was 7.45 µM. In addition, the “fold higher 5-azacytidine sensitivity” value in experiment [2] was determined as 1.6 fold.

The values are drawn from US20150218654A1, “METHODS FOR PREDICTING MULTIPLE MYELOMA TREATMENT RESPONSE” (INSERM (INSTITUT NATIONAL DE LA SANTÉ ET DE LA RE- CHERCHE …, priority 2012, published 2015).
